# Results: patent US8680109B2, “Combination product comprising SRC kinase inhibitor AZDO530 and an antioestrogen or EGFR-TK-inhibitor” (AstraZeneca AB, priority 2004, dated 2014)
# Experiments:
# [1] = system: 'Tam-R' cells; test: Test (e) cell invasion assay; assay type: cell-based; details: Homo sapiens, 72 h; read-out: IC50 versus 'Tam-R' cells, Test (e) cell invasion
# Procedure: (§1) ‘Tam-R’ MCF7 breast cancer cells were maintained in phenol red-free RPMI medium supplemented with 5% charcoal-stripped, steroid-depleted foetal calf serum, antibiotics as above, glutamine (200 mM) and 4-hydroxytamoxifen (10^−7M in ethanol).
# A modification of the method previously described by Hiscox et al. (Breast Cancer Research Treatment, 2000, 59, 245-254) was used to study the invasive nature of the breast cancer cells.
# Transwell polycarbonate filter membrane inserts (6.5 mm diameter, 8 μm pore size from Costar Inc.) were placed in 24-well tissue-culture plates and were coated with Matrigel (0.4 μg/ml) at ambient temperature overnight in a sterile tissue culture hood. After rehydrating the wells with serum-free RPMI for 1 hour at 37° C., cells were seeded onto the membrane inserts at 5×10^4 cells/well with or without appropriate concentrations of inhibitor compounds (or combinations of inhibitor compounds) and 600 μl of culture medium was added such that the membrane inserts were immersed. The wells were cultured at 37° C. for 72 hours, after which the non-invasive cells and Matrigel were removed from the inside of the wells with a cotton swab. […] Cell invasion was quantified with a fluorescent microscope by viewing 5 separate fields per membrane at 2-fold magnification and counting the number of cells in each field. […]
# [2] = system: MCF7 human breast cancer cells; test: Test (f) cell attachment assay; assay type: cell-based
# Procedure: (f) Cell Attachment Assay
# The wells of a 96-well plate were coated with Matrigel (50 μg/well) and air-dried overnight in a sterile tissue culture hood. Cells growing in log phase were harvested and adjusted to a concentration of 2×10^5 cells per ml in culture medium containing appropriate concentrations of inhibitor compounds (or combinations of inhibitor compounds). Aliquots of cells (2×10^4 cells) were seeded into each well and the plate was incubated at 37° C. for 30 minutes. The wells were washed twice with PBS to remove unbound cells prior to the addition to each well of 150 μl of MTT solution (0.5 mg/ml in serum-free medium). Plates were incubated for a further 4 hours at 37° C. to allow the development of […] crystals within the cells. The MTT solution was removed from the wells and the dye was extracted at 4° C. overnight with 10% TX-100 solution. The absorbance was measured with a Titerteck Multiskan ELISA plate reader (Flow Laboratories, UK) equipped with a 540 nm filter. Cell attachment in response to the treatments was calculated as a percentage of the cells adhered in the control (untreated) wells.
# [3] = system: human and/or mouse carcinomas grown as tumours in athymic nude mice; test: Test (i) in vivo xenograft growth assays; details: AZD0530 used alone; oral once daily
# Excerpt: (i) In Vivo Xenograft Growth Assays
# This test measures the ability of combination product of the invention to inhibit the growth of human and/or mouse carcinomas grown as tumours in athymic nude mice. Suitable cancer cells for injection include human MCF7 breast cancer cells (obtainable from American Type Culture Collection, 10801 University Boulevard, Manassas, Va. 20110-2209; Cat. No. HTB-22), c-Src transfected mouse 3T3 fibroblast cancer cells (transfection with an activating mutant (Y530F) of human c-Src via a similar procedure to that described by Shalloway et al., Cell, 1987, 49, 65-73), human LoVo colorectal cancer cells (obtainable from European Collection of Cell Cultures, ECACC, CAMR, Salisbury, Wiltshire, SP4 0JG, UK; Cat. No. CCL 229), human CaLu-6 lung cancer cells (ATCC Cat. No. HTB-56) and human A549 NSCLC cancer cells (ATCC Cat. No. CCL185).
# A total of about 1×10^6 human cancer cells in 0.1 ml of a 1:1 mixture of matrigel (Beckton Dickinson Catalogue No. 40234) and Eagle's Minimum Essential Medium (EMEM; Gibco Catalogue No 21090-022) were injected subcutaneously into a flank of each test mouse and the resultant tumours were allowed to grow for about 10 days. […] Tumour size was measured twice weekly using callipers and a theoretical volume was calculated. The effect on tumour growth was assessed.
# [4] = system: MCF7 human breast cancer cells; test: Test (b) time lapse analysis of cell motility; assay type: cell-based
# Procedure: (b) Time Lapse Analysis of Cell Motility
# Cells were cultured in 6-well tissue-culture plates and allowed to reach log phase growth. Plates were transferred to the heated stage of an inverted microscope and cell cultures were overlaid with mineral oil to minimise pH changes in the medium during the cell motility analysis. Cell motility was recorded over a period of 6 hours using a video camera coupled to a time lapse video recording system. For quantitation of cell motility, images were captured at 10 minute intervals during video playback and the movement of at least 10 individual cells was tracked using Optimas image analysis software (Media Cybernetics UK, Finchampstead, Berkshire, GB). Cell movement was plotted as either cell position (x-position vs. y-position) or total distance migrated (μm) as a function of time. To determine the directional persistence of cell motility, paths of cells were plotted such that all paths start from the origin.
# [5] = system: human tumour cell line A549; test: Test (h) in vitro microdroplet migration assay; assay type: cell-based; details: read-out: activity, Test (h) (migratory inhibitory IC50)
# Procedure: (h) In Vitro Microdroplet Migration Assay
# This assay determines the ability of a test compound (or combination of test compounds) to inhibit the migration of adherent mammalian cell lines, for example the human tumour cell line A549.
# RPMI medium (Sigma) containing 10% FCS, 1% L-glutamine and 0.3% agarose (Difco Catalogue No. 0142-01) was warmed to 37° C. in a water bath. A stock 2% aqueous agar solution was autoclaved and stored at 42° C. An aliquot (1.5 ml) of the agar solution was added to RPMI medium (10 ml) immediately prior to its use. A549 cells (Accession No. ATCC CCL185) were suspended at a concentration of 2×10^7 cells/ml in the medium and maintained at a temperature of 37° C.
# A droplet (2 μl) of the cell/agarose mixture was transferred by pipette into the centre of each well of a number of 96-well, flat bottomed non-tissue-culture-treated microtitre plate (Bibby Sterilin Catalogue No. 642000). The plates were placed briefly on ice to speed the gelling of the agarose-containing droplets. Aliquots (90 μl) of medium which had been cooled to 4° C. were transferred into each well, taking care not to disturb the microdroplets. Test compounds were diluted from a 10 mM stock solution in DMSO using RPMI medium as described above. […]
# Migration was assessed visually and the distance of migration was measured back to the edge of the agar droplet. […]
# [6] = system: MCF7 human breast cancer cells ('wild type', 'Tam-R', 'Tam/TKI-R'); test: Test (a) cell growth studies; assay type: cell-based; details: MCF7, 168 h
# Excerpt: Various test methods have been described by Knowlden et al., Endocrinology, 2003, 144, 1032-1044 and include one or more of:— • (i) tamoxifen-responsive ‘wild type’ MCF7 human breast cancer cells; • (ii) an endocrine-insensitive variant of such MCF7 breast cancer cells that was designated ‘Tam-R’ (tamoxifen-resistant); and • (iii) a variant of such ‘TAM-R’ cells that was also insensitive to treatment with the EGFR TKI ZD1839 that was designated ‘Tam/TKI-R’.
# Tamoxifen-responsive ‘wild type’ MCF7 breast cancer cells were routinely cultured in phenol red-free RPMI medium supplemented with 5% foetal calf serum plus penicillin (10 IU/ml), streptomycin (10 μg/ml) and fungizone (2.5 μg/ml). Cultures were maintained at 37° C. in a humidified atmosphere with 5% CO2. […]
# Cell monolayers were grown for 7 days in serum growth factor free DCCM medium in the presence of increasing concentrations of the individual components of the above-mentioned combinations or with the combinations themselves. Cell population growth was evaluated by means of trypsin dispersion of the cell monolayers and cell number was measured using a Beckman Coulter counter (available from Beckman Coulter Limited, Luton, GB). […]
# [7] = system: 'Tam-R' cells; test: Test (d) fibronectin cell migration assay; assay type: cell-based; details: Homo sapiens, 20 h; read-out: IC50 versus 'Tam-R' cells, Test (d) fibronectin cell migration
# Procedure: as §1
# (d) Fibronectin Cell Migration Assay
# The polycarbonate filter membranes of Transwell chambers (6.5 mm diameter, 8.0 μm pore size from Costar Inc., Cambridge, Mass., USA) were coated on the underside of the membrane with 50 μg/ml fibronectin in serum-free RPMI for 2 hours at 37° C. The polycarbonate membranes were rinsed once with PBS. Cells were harvested and resuspended at a concentration of 5×10^5 cells per ml in serum-free RPMI. Aliquots of cells (100 μl; 5×10^4 cells) were seeded into each well to which 500 μl of experimental medium had been added. In control experiments, cells were allowed to migrate toward the underside of the membrane for 20 hours. In test experiments, appropriate concentrations of inhibitor compounds (or combinations of inhibitor compounds) were added and cells were allowed to migrate toward the underside of the membrane for 20 hours. […] The number of migrating cells was counted at 20-fold magnification using an inverted microscope.
# [8] = system: tamoxifen resistant MCF7 breast cancer cells; details: cited from earlier work
IC50 [1] [nM],IC50 [2] [nM],IC50 [4] [nM],IC50 [5] [nM],IC50 [6] [nM],IC50 [7] [nM],SMILES,"activity (active dose), Test (i) xenograft growth [3] [mg/kg/day]",basal and TGFα stimulated growth [8]
~100,100 to 1000,100 to 1000,100 to 5000,100 to 5000,~100,"CN1CCN(CCOc2cc(OC3CCOCC3)c3c(Nc4c(Cl)ccc5c4OCO5)ncnc3c2)CC1 [AZD0530, 4-(6-chloro-2,3-methylenedioxyanilino)-7-[2-(4-methylpiperazin-1-yl)ethoxy]-5-tetrahydropyran-4-yloxyquinazoline]",1 to 200,
,,,,,,"COc1cc2ncnc(Nc3ccc(F)c(Cl)c3)c2cc1OCCCN1CCOCC1 [ZD1839, N-(3-chloro-4-fluorophenyl)-7-methoxy-6-(3-morpholinopropoxy)quinazolin-4-amine]",,could be inhibited
